Values joined by “and” are separate entries in the source; they are usually repeats but may differ in a detail not shown here. Identical values can stand only once. Numbers after ± are expanded uncertainties.
Details: Fluid (supercritical or subcritical phases); for mass density: Buoyancy - hydrostatic balance with magnetic suspension - one sinker; for viscosity: vibrating wire

CC [ethane]
mass density (293.15 K, 64.37 kPa): 0.79811 ± 0.0028 kg/m3 | viscosity (293.15 K, 64.37 kPa): 0.009075 ± 5.5e-05 mPa·s and 0.009074 ± 5.5e-05 mPa·s | mass density (293.15 K, 80.37 kPa): 0.99778 ± 0.003 kg/m3 | viscosity (293.15 K, 80.37 kPa): 0.009076 ± 5.5e-05 mPa·s | mass density (293.15 K, 80.42 kPa): 0.99851 ± 0.003 kg/m3 | viscosity (293.15 K, 80.42 kPa): 0.009075 ± 5.5e-05 mPa·s | mass density (293.15 K, 80.48 kPa): 0.99923 ± 0.003 kg/m3 | viscosity (293.15 K, 80.48 kPa): 0.009073 ± 5.5e-05 mPa·s | mass density (293.15 K, 160.1 kPa): 2.0005 ± 0.0048 kg/m3 | viscosity (293.15 K, 160.1 kPa): 0.009083 ± 5.5e-05 mPa·s and 0.009082 ± 5.5e-05 mPa·s | mass density (293.15 K, 160.16 kPa): 2.0012 ± 0.0048 kg/m3 | viscosity (293.15 K, 160.16 kPa): 0.009082 ± 5.5e-05 mPa·s | mass density (293.15 K, 315.97 kPa): 3.9991 ± 0.0087 kg/m3 | viscosity (293.15 K, 315.97 kPa): 0.009102 ± 5.5e-05 mPa·s | mass density (293.15 K, 316.05 kPa): 4.0002 ± 0.0087 kg/m3 | viscosity (293.15 K, 316.05 kPa): 0.009098 ± 5.5e-05 mPa·s and 0.009099 ± 5.5e-05 mPa·s | mass density (293.15 K, 467.91 kPa): 5.9992 ± 0.013 kg/m3 | viscosity (293.15 K, 467.91 kPa): 0.009118 ± 5.5e-05 mPa·s | mass density (293.15 K, 467.96 kPa): 5.9999 ± 0.013 kg/m3 | viscosity (293.15 K, 467.96 kPa): 0.009119 ± 5.5e-05 mPa·s | mass density (293.15 K, 468.01 kPa): 6.0006 ± 0.013 kg/m3 | viscosity (293.15 K, 468.01 kPa): 0.009118 ± 5.5e-05 mPa·s | mass density (293.15 K, 615.93 kPa): 8.0004 ± 0.017 kg/m3 | viscosity (293.15 K, 615.93 kPa): 0.009139 ± 5.5e-05 mPa·s and 0.009137 ± 5.5e-05 mPa·s | mass density (293.15 K, 616.03 kPa): 8.0018 ± 0.017 kg/m3 | viscosity (293.15 K, 616.03 kPa): 0.009137 ± 5.5e-05 mPa·s | mass density (293.15 K, 759.69 kPa): 9.9972 ± 0.021 kg/m3 | viscosity (293.15 K, 759.69 kPa): 0.009162 ± 5.5e-05 mPa·s and 0.009165 ± 5.5e-05 mPa·s | mass density (293.15 K, 889.73 kPa): 11.852 ± 0.025 kg/m3 | viscosity (293.15 K, 889.73 kPa): 0.009183 ± 5.5e-05 mPa·s and 0.009184 ± 5.5e-05 mPa·s | mass density (293.15 K, 889.87 kPa): 11.854 ± 0.025 kg/m3 | viscosity (293.15 K, 889.87 kPa): 0.009183 ± 5.5e-05 mPa·s | mass density (293.15 K, 1036.2 kPa): 14.001 ± 0.029 kg/m3 | viscosity (293.15 K, 1036.2 kPa): 0.009212 ± 5.5e-05 mPa·s and 0.009213 ± 5.5e-05 mPa·s | mass density (293.15 K, 1036.3 kPa): 14.002 ± 0.029 kg/m3 | viscosity (293.15 K, 1036.3 kPa): 0.009213 ± 5.5e-05 mPa·s | mass density (293.15 K, 1167.2 kPa): 15.979 ± 0.033 kg/m3 | viscosity (293.15 K, 1167.2 kPa): 0.009246 ± 5.6e-05 mPa·s | mass density (293.15 K, 1167.3 kPa): 15.98 ± 0.033 kg/m3 and 15.981 ± 0.033 kg/m3 | viscosity (293.15 K, 1167.3 kPa): 0.009243 ± 5.6e-05 mPa·s | mass density (293.15 K, 1293.6 kPa): 17.943 ± 0.038 kg/m3 | viscosity (293.15 K, 1293.6 kPa): 0.009274 ± 5.6e-05 mPa·s | mass density (293.15 K, 1293.8 kPa): 17.946 ± 0.038 kg/m3 | viscosity (293.15 K, 1293.8 kPa): 0.009275 ± 5.6e-05 mPa·s | mass density (293.15 K, 1420.8 kPa): 19.979 ± 0.042 kg/m3 | viscosity (293.15 K, 1420.8 kPa): 0.009305 ± 5.6e-05 mPa·s and 0.009308 ± 5.6e-05 mPa·s | mass density (293.15 K, 1421 kPa): 19.983 ± 0.042 kg/m3 | viscosity (293.15 K, 1421 kPa): 0.00931 ± 5.6e-05 mPa·s | mass density (293.15 K, 1992.4 kPa): 30.002 ± 0.063 kg/m3 | viscosity (293.15 K, 1992.4 kPa): 0.009506 ± 5.7e-05 mPa·s | mass density (293.15 K, 1992.5 kPa): 30.004 ± 0.063 kg/m3 | viscosity (293.15 K, 1992.5 kPa): 0.009506 ± 5.7e-05 mPa·s | mass density (293.15 K, 1992.6 kPa): 30.006 ± 0.063 kg/m3 | viscosity (293.15 K, 1992.6 kPa): 0.009505 ± 5.7e-05 mPa·s | mass density (293.15 K, 2477.2 kPa): 40.017 ± 0.085 kg/m3 | viscosity (293.15 K, 2477.2 kPa): 0.009749 ± 5.9e-05 mPa·s | mass density (293.15 K, 2477.4 kPa): 40.022 ± 0.085 kg/m3 | viscosity (293.15 K, 2477.4 kPa): 0.009748 ± 5.9e-05 mPa·s | mass density (293.15 K, 2477.6 kPa): 40.026 ± 0.085 kg/m3 | viscosity (293.15 K, 2477.6 kPa): 0.009748 ± 5.9e-05 mPa·s | mass density (293.15 K, 2879.7 kPa): 49.983 ± 0.11 kg/m3 | viscosity (293.15 K, 2879.7 kPa): 0.01003 ± 6e-05 mPa·s | mass density (293.15 K, 2879.9 kPa): 49.988 ± 0.11 kg/m3 | viscosity (293.15 K, 2879.9 kPa): 0.01003 ± 6e-05 mPa·s | mass density (293.15 K, 3212.1 kPa): 60.071 ± 0.13 kg/m3 | viscosity (293.15 K, 3212.1 kPa): 0.01036 ± 6.2e-05 mPa·s | mass density (293.15 K, 3212.2 kPa): 60.073 ± 0.13 kg/m3 | viscosity (293.15 K, 3212.2 kPa): 0.01036 ± 6.2e-05 mPa·s | mass density (293.15 K, 3212.3 kPa): 60.079 ± 0.13 kg/m3 | viscosity (293.15 K, 3212.3 kPa): 0.01036 ± 6.2e-05 mPa·s | mass density (293.15 K, 3471.9 kPa): 70.014 ± 0.15 kg/m3 | viscosity (293.15 K, 3471.9 kPa): 0.01073 ± 6.5e-05 mPa·s | mass density (293.15 K, 3472 kPa): 70.02 ± 0.15 kg/m3 | viscosity (293.15 K, 3472 kPa): 0.01073 ± 6.5e-05 mPa·s | mass density (293.15 K, 3472.2 kPa): 70.027 ± 0.15 kg/m3 | viscosity (293.15 K, 3472.2 kPa): 0.01073 ± 6.5e-05 mPa·s | mass density (293.15 K, 3577.6 kPa): 74.947 ± 0.16 kg/m3 | viscosity (293.15 K, 3577.6 kPa): 0.01093 ± 6.6e-05 mPa·s | mass density (293.15 K, 3577.8 kPa): 74.957 ± 0.16 kg/m3 | viscosity (293.15 K, 3577.8 kPa): 0.01092 ± 6.6e-05 mPa·s | mass density (307.15 K, 92.55 kPa): 1.0967 ± 0.0032 kg/m3 | viscosity (307.15 K, 92.55 kPa): 0.009492 ± 5.7e-05 mPa·s | mass density (307.15 K, 92.62 kPa): 1.0975 ± 0.0032 kg/m3 | viscosity (307.15 K, 92.62 kPa): 0.009489 ± 5.7e-05 mPa·s | mass density (307.15 K, 97.81 kPa): 1.1594 ± 0.0033 kg/m3 | viscosity (307.15 K, 97.81 kPa): 0.009507 ± 5.7e-05 mPa·s and 0.009508 ± 5.7e-05 mPa·s | mass density (307.15 K, 160.18 kPa): 1.907 ± 0.0046 kg/m3 | viscosity (307.15 K, 160.18 kPa): 0.00951 ± 5.7e-05 mPa·s and 0.009508 ± 5.7e-05 mPa·s | mass density (307.15 K, 166.71 kPa): 1.9856 ± 0.0047 kg/m3 | viscosity (307.15 K, 166.71 kPa): 0.009531 ± 5.7e-05 mPa·s | mass density (307.15 K, 166.77 kPa): 1.9863 ± 0.0047 kg/m3 | viscosity (307.15 K, 166.77 kPa): 0.009529 ± 5.7e-05 mPa·s | mass density (307.15 K, 327.38 kPa): 3.9439 ± 0.0086 kg/m3 | viscosity (307.15 K, 327.38 kPa): 0.009566 ± 5.7e-05 mPa·s | mass density (307.15 K, 332.45 kPa): 4.0065 ± 0.0087 kg/m3 | viscosity (307.15 K, 332.45 kPa): 0.009542 ± 5.8e-05 mPa·s and 0.009543 ± 5.8e-05 mPa·s | mass density (307.15 K, 493.91 kPa): 6.0228 ± 0.013 kg/m3 | viscosity (307.15 K, 493.91 kPa): 0.009573 ± 5.8e-05 mPa·s | mass density (307.15 K, 493.97 kPa): 6.0235 ± 0.013 kg/m3 | viscosity (307.15 K, 493.97 kPa): 0.009572 ± 5.8e-05 mPa·s | mass density (307.15 K, 649.95 kPa): 8.0188 ± 0.017 kg/m3 | viscosity (307.15 K, 649.95 kPa): 0.009604 ± 5.8e-05 mPa·s | mass density (307.15 K, 650.01 kPa): 8.0195 ± 0.017 kg/m3 | viscosity (307.15 K, 650.01 kPa): 0.009604 ± 5.8e-05 mPa·s | mass density (307.15 K, 788.48 kPa): 9.8322 ± 0.021 kg/m3 | viscosity (307.15 K, 788.48 kPa): 0.009663 ± 5.8e-05 mPa·s | mass density (307.15 K, 788.7 kPa): 9.8351 ± 0.021 kg/m3 | viscosity (307.15 K, 788.7 kPa): 0.009665 ± 5.8e-05 mPa·s | mass density (307.15 K, 800.35 kPa): 9.9895 ± 0.021 kg/m3 | viscosity (307.15 K, 800.35 kPa): 0.009635 ± 5.8e-05 mPa·s | mass density (307.15 K, 800.41 kPa): 9.9903 ± 0.021 kg/m3 | viscosity (307.15 K, 800.41 kPa): 0.009639 ± 5.8e-05 mPa·s and 0.009636 ± 5.8e-05 mPa·s | mass density (307.15 K, 959.13 kPa): 12.123 ± 0.026 kg/m3 | viscosity (307.15 K, 959.13 kPa): 0.009675 ± 5.8e-05 mPa·s | mass density (307.15 K, 959.2 kPa): 12.124 ± 0.026 kg/m3 | viscosity (307.15 K, 959.2 kPa): 0.009674 ± 5.8e-05 mPa·s | mass density (307.15 K, 1094.4 kPa): 13.987 ± 0.03 kg/m3 | viscosity (307.15 K, 1094.4 kPa): 0.009709 ± 5.9e-05 mPa·s | mass density (307.15 K, 1094.5 kPa): 13.988 ± 0.03 kg/m3 | viscosity (307.15 K, 1094.5 kPa): 0.00971 ± 5.9e-05 mPa·s | mass density (307.15 K, 1233.8 kPa): 15.953 ± 0.034 kg/m3 | viscosity (307.15 K, 1233.8 kPa): 0.009746 ± 5.9e-05 mPa·s | mass density (307.15 K, 1233.9 kPa): 15.955 ± 0.034 kg/m3 | viscosity (307.15 K, 1233.9 kPa): 0.009746 ± 5.9e-05 mPa·s | mass density (307.15 K, 1343.4 kPa): 17.536 ± 0.038 kg/m3 | viscosity (307.15 K, 1343.4 kPa): 0.009778 ± 5.9e-05 mPa·s | mass density (307.15 K, 1469.3 kPa): 19.394 ± 0.041 kg/m3 | viscosity (307.15 K, 1469.3 kPa): 0.009855 ± 5.9e-05 mPa·s | mass density (307.15 K, 1469.5 kPa): 19.396 ± 0.041 kg/m3 | viscosity (307.15 K, 1469.5 kPa): 0.009856 ± 5.9e-05 mPa·s | mass density (307.15 K, 1502.4 kPa): 19.889 ± 0.044 kg/m3 | viscosity (307.15 K, 1502.4 kPa): 0.00983 ± 5.9e-05 mPa·s and 0.009828 ± 5.9e-05 mPa·s

— the NIST ThermoML archive (doi:10.1021/je101178u)
